Data taken from article PMC12040169 (PLOS Biology, 2025).

Assay: in vitro
Conditions: human, hela cells, % viability

First: O=C(c1ccc(-n2ccnc2)c(-n2cccc2)c1)N1CCCCCC1 [CBK284813]
Second: O=C(NC1CC1)c1ccc(-n2cccn2)c(C#Cc2cccnc2)c1 [CBK282449]
The viability at 28.5 h, 10 µM of the first is lower: 87.4% for the first, 107% for the second.

Going from CCOc1ccccc1NC(=O)CN(c1cc(C(F)(F)F)ccc1Cl)S(C)(=O)=O [CBK264627] to COc1ccc(-c2nnc(SCC(=O)O)n2-c2cccc(C(F)(F)F)c2)cc1OC [CBK268347], the viability at 28.5 h, 10 µM rises from 84.7% to 88.7%.

Compared with CC1CCN(C(=O)Cn2c(=O)n(C(C)C)c3ncccc32)CC1 [CBK283698], Cc1ncccc1C(=O)N1CCC(c2cc3ccccc3cn2)CC1 [CBK284854] is higher in viability at 28.5 h, 10 µM: 89.5% for the first, 113% for the second.

Going from CCn1c(COc2ccc(Cl)c3cccnc23)nnc1SC [CBK266611] to O=C(CSc1nnc(-c2cccnc2)n1Cc1ccccc1)Nc1ccc(F)cc1 [CBK267528], the viability at 28.5 h, 10 µM rises from 85.9% to 96.8%.

Going from CC1(C)Cc2nc(N3CCOCC3)ncc2C(NC(=O)C2CCCC2)C1 (stereo not shown) [CBK307687] to CN1CCCC1C(CCNC1CCCCC1)c1ccccc1 (stereo not shown) [CBK023921C], the viability at 28.5 h, 10 µM falls from 115% to 99%.

First: COc1ccc(C)cc1C(O)CN1CCOC(c2ccc(F)cc2)C1 (stereo not shown) [CBK298264]
Second: O=C(Nc1cccc2ccccc12)C1CCCN1S(=O)(=O)c1ccc(F)cc1 (stereo not shown) [CBK138924]
The viability at 28.5 h, 10 µM of the first is lower: 95.5% for the first, 97.8% for the second.

First: CC(=O)Nc1nc(-c2ccc(Cl)s2)cs1 [CBK287317]
Second: Cc1cc(NC(=O)c2cc(Cl)sc2Cl)no1 [CBK010872]
The viability at 28.5 h, 10 µM of the first is higher: 89.5% for the first, 84.4% for the second.

Going from Nc1ncnc2c1nnn2[C@@H]1O[C@H](CO)[C@H](O)C1O (stereo partly shown) [CBK201228] to O=C(NC1CCCCC1)N[C@H]1CO[C@H]2[C@@H]1OC[C@@H]2n1cc(-c2ccccc2)nn1 [CBK289505], the viability at 28.5 h, 10 µM rises from 30% to 84.6%.

Going from Cc1cccc(S(=O)(=O)Nc2cc(OCCN3CCOCC3)c3occc3c2)c1 [CBK067420C] to O=C(Nc1cccc(OC(=O)c2cccc(S(=O)(=O)N3CCOCC3)c2)c1)c1ccccc1 [CBK261365], the viability at 28.5 h, 10 µM falls from 90.4% to 85.5%.

Going from CC(Nc1n[nH]c(=O)[nH]c1=O)C(=O)N/N=C/c1ccccc1O (stereo not shown) [CBK263526] to O=C(Cc1ccccc1F)NCCn1nc(-c2ccco2)ccc1=O [CBK283705], the viability at 28.5 h, 10 µM rises from 91.7% to 96.9%.

Going from Cc1ccc(S(=O)(=O)CC(=O)N2CCCC3(CCN(C(=O)Cc4c[nH]c5ccccc45)C3)C2)cc1 (stereo not shown) [CBK131595] to COc1ccc(S(=O)(=O)N2CCN(Cc3ccc4c(c3)OCO4)CC2)c2ccccc12 [CBK074521], the viability at 28.5 h, 10 µM rises from 90.4% to 96.4%.

First: O=C(Cc1ccc(Cl)cc1Cl)Nc1ccc2ncccc2c1 [CBK159787]
Second: Cc1ccc(C(=O)Nc2cccc(CCc3ccncc3)c2)c(=O)n1C [CBK285556]
The viability at 28.5 h, 10 µM of the first is higher: 91.5% for the first, 84.4% for the second.

Going from Cc1ncsc1CCOc1cc(N2CCCC2)ncn1 [CBK115895] to O=C(CCc1ccc(=O)[nH]n1)N1CCCCC1c1nc2cc(F)ccc2[nH]1 (stereo not shown) [CBK291107], the viability at 28.5 h, 10 µM rises from 85.5% to 105%.

Compared with O=S(=O)(NCc1cccc(Cl)c1)c1csc2ccnc(N3CCNCC3)c12 [CBK045595C], c1ccc(CNc2cccc(N3CCNCC3)n2)cc1 [CBK003176T] is higher in viability at 28.5 h, 10 µM: 88.6% for the first, 92% for the second.

Compared with O=C(C1CC1)N1CCC2(CC1)Nc1ccccc1-n1cccc12 [CBK284011], CN1CCC2(CC1)CC(NC(=O)c1ccco1)c1ccccc1O2 (stereo not shown) [CBK283804] is higher in viability at 28.5 h, 10 µM: 91.5% for the first, 96.6% for the second.

First: O=C(CCn1c(-c2ccccc2)c(-c2ccccc2)c2ccccc21)N/N=C/c1cccc(O)c1 [CBK262348]
Second: Cc1ccc(Nc2nc(N/N=C/c3ccccc3)nc(N3CCC(Cc4ccccc4)CC3)n2)cc1 [CBK262296]
The viability at 28.5 h, 10 µM of the first is lower: 52.1% for the first, 76.7% for the second.

Going from CCCC(=O)N(C)C(CO)c1cc(OC)ccc1Br (stereo not shown) [CBK304694] to CCOC(=O)CC(O)(c1ccc(OC)cc1)c1cc(C)no1 (stereo not shown) [CBK023133], the viability at 28.5 h, 10 µM rises from 95.4% to 107%.

First: NC(=O)c1cc([N+](=O)[O-])ccc1NCCN1C(=O)c2ccc(C(=O)O)cc2C1=O [CBK264444]
Second: COc1ccc(S(=O)(=O)N2CCN(CCN3C(=O)c4cccc5cccc(c45)C3=O)CC2)cc1[N+](=O)[O-] [CBK263301]
The viability at 28.5 h, 10 µM of the first is higher: 105% for the first, 102% for the second.

First: CCN1CC2(CCN(Cc3nc4ccccc4s3)CC2)c2ccccc21 [CBK136993]
Second: O=C(O)C(=O)c1cn(Cc2ccccc2Cl)c2ccccc12 [CBK287035]
The viability at 28.5 h, 10 µM of the first is higher: 108% for the first, 88.8% for the second.

First: Nc1ncc(-c2cc(C(F)(F)F)cc(C(F)(F)F)c2)nc1NCCCO [CBK063546]
Second: CS(=O)(=O)Nc1ncc(Br)cc1C(=O)NCc1ccc(F)cc1 [CBK076538]
The viability at 28.5 h, 10 µM of the first is higher: 105% for the first, 89.6% for the second.

First: COc1ccccc1NC(=O)c1sc2ncn(CC(=O)NC3CCCCC3)c(=O)c2c1C [CBK265788]
Second: O=c1c2c3c(sc2ncn1CC(O)CO)CCCC3 (stereo not shown) [CBK269448]
The viability at 28.5 h, 10 µM of the first is higher: 98.5% for the first, 94.8% for the second.

First: O=C(CSc1nnc2scc(-c3ccccc3)n12)Nc1nsc(-c2ccc(Cl)cc2)n1 [CBK266576]
Second: Cc1oc(C(=O)Nc2ccc(C(=O)O)cc2)cc1COc1ccccc1 [CBK263273]
The viability at 28.5 h, 10 µM of the first is higher: 95.4% for the first, 94.2% for the second.

First: CCN1CCCC1CNC(=O)c1cc(Br)cnc1N(C)C(C)=O (stereo not shown) [CBK076524]
Second: Cc1cccc(OCC2CCCN(C(=O)NCCc3cnn(C)c3)C2)c1 (stereo not shown) [CBK307358]
The viability at 28.5 h, 10 µM of the first is lower: 85.2% for the first, 96.9% for the second.

Compared with CCOc1cc(CCC(=O)NC(C)c2ccccc2)on1 (stereo not shown) [CBK282597], Cc1cc(NC(=O)c2ccco2)c2ccccc2n1 [CBK116258] is higher in viability at 28.5 h, 10 µM: 82.3% for the first, 106% for the second.

Compared with Cc1cc(C)n(C(C)C(=O)NCC2(N(C)C)CCCC2)n1 (stereo not shown) [CBK281713], CCc1nc2c(OCCC3CCCCC3)cccn2c1N(C)C(=O)CC(C)C [CBK147671] is lower in viability at 28.5 h, 10 µM: 107% for the first, 94.8% for the second.

Going from CCN(CC)CCNc1nc2c(=O)[nH]c(=O)n(C)c2[nH]1 [CBK287918] to Cc1ccc(C(=O)NCCCc2ccc(Cl)cc2)c(=O)n1C [CBK281567], the viability at 28.5 h, 10 µM falls from 116% to 80.4%.

Going from Cc1cccc(NC(=O)c2ccc3n[nH]c(=S)n3c2)c1 [CBK288389] to Cc1[nH]c2c(C(=O)Nc3cccc(CN4CCOC4=O)c3)cccc2c1C [CBK298338], the viability at 28.5 h, 10 µM rises from 88% to 90.3%.

Going from O=C(/C=C/c1cccnc1)Nc1cccc(N2CCNCC2)c1 [CBK034128T] to O=C(O)c1cccc(-n2c(S)nnc2-c2cnccn2)c1 [CBK269252], the viability at 28.5 h, 10 µM falls from 109% to 104%.

Compared with CC(C)(C)c1nnc2sc(-c3cccnc3)nn12 [CBK287289], Cc1c2c(nn1C)CSc1ccccc1C2=O [CBK006517] is lower in viability at 28.5 h, 10 µM: 112% for the first, 92.8% for the second.

Compared with Cc1nn(CCC#N)c(C)c1[C@@H]1C=C[C@@H](NC(=O)Nc2ccccc2)C1 [CBK289173], Cc1ccc(C(O)CN(C)Cc2c(C)nn(C)c2C)c(C)c1 (stereo not shown) [CBK282939] is lower in viability at 28.5 h, 10 µM: 92.9% for the first, 84.7% for the second.

Compared with Cc1cc(NS(=O)(=O)c2ccc3oc(=O)ccc3c2)n(C)n1 [CBK067250], C/C(=N\NC(=O)CCN1CCN(C)CC1)c1ccc(O)cc1 [CBK263142] is lower in viability at 28.5 h, 10 µM: 99.6% for the first, 92.2% for the second.

Same assay, conditions: human, hela cells, % viability, bulk resorufin, single well

First: Fc1ccc(OCCOc2ccccc2-c2ccc3c(c2)COC2(CCNCC2)O3)cc1 [CBK105745]
Second: CN1CCN(c2ccc(C=C3C(=O)NC(=S)NC3=O)o2)CC1 [CBK264367]
The viability at 28.5 h, 10 µM of the first is lower: 88.7% for the first, 98.6% for the second.
